This note sets out measurements from ChEMBL document CHEMBL5543163, “Druglike, 18F-labeled PET Tracers Targeting Fibroblast Activation Protein” (J Med Chem, 2024).

A word on the IC50: it is the concentration at which inhibition is half-maximal.

For test [1], the target named is T1, Prolyl endopeptidase FAP (Homo sapiens, UniProt Q12884).
T1 sequence (Q12884 whole entry): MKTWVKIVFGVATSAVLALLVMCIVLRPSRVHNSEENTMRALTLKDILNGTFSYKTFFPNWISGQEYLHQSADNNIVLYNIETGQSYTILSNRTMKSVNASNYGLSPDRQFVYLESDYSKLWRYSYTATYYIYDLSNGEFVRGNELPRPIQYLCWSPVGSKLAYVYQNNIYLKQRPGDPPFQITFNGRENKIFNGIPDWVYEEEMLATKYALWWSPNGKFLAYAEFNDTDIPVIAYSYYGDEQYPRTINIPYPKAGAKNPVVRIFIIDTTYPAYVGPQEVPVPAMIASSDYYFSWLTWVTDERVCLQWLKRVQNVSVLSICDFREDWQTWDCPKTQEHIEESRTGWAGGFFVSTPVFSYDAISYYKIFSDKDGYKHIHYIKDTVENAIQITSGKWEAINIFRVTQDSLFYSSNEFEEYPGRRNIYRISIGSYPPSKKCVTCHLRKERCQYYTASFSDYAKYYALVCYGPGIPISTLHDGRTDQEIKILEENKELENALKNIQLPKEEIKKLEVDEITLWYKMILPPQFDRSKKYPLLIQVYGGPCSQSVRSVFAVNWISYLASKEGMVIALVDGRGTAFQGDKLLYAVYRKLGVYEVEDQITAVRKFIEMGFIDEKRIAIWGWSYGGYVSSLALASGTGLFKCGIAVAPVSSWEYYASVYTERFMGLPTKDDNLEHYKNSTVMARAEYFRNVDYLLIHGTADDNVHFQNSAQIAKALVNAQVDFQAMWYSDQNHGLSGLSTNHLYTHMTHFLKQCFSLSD
The test is described as follows: Inhibition of FAP (unknown origin).

Test [2] deals with T2, Prolyl endopeptidase (Homo sapiens, UniProt P48147).
T2 sequence (P48147 whole entry): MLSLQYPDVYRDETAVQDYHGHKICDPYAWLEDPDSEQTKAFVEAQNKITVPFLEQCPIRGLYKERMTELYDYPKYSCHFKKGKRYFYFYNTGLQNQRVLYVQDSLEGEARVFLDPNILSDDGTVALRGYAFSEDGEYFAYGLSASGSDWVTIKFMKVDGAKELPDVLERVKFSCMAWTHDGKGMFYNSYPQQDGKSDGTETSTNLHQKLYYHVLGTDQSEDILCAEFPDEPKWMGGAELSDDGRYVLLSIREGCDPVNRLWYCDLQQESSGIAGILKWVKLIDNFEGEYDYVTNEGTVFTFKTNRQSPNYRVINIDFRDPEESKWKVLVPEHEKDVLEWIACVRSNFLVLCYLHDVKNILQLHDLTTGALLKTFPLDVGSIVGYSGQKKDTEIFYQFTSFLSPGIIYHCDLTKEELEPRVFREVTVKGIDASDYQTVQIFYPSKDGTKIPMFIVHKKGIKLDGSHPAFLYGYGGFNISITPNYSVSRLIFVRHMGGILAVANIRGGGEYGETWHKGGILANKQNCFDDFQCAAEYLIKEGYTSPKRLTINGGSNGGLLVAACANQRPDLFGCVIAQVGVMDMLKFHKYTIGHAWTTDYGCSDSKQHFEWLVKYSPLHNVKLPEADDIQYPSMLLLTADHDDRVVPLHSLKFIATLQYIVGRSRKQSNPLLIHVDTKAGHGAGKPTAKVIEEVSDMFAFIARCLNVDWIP
As to the kind of experiment: Inhibition of PREP (unknown origin).

In the case of `CN(CC(=O)O)C1(CCCCNCCNc2c(NCCCCOc3ccc4nccc(C(=O)NCC(=O)N5CC(F)(F)C[C@H]5C#N)c4c3)c(=O)c2=O)CN(CC(=O)O)CCN(CC(=O)O)C1`, the IC50 in test [1] was 0.8 nM; in test [2], 1700 nM.
